Columns and labels:
Assay type in all cases: in vivo
[1] = system: Erysiphe graminis f. sp. tritici; assay: Test A: preventive spray on wheat seedlings, wheat powdery mildew, disease rating; settings: wheat seedlings sprayed to run-off, inoculated the following day with Erysiphe graminis f. sp. tritici, rated after 7 days at 20° C.; test concentration not given
Outline: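 Wheat seedlings sprayed to run-off with compound suspension (200 ppm ≈ 500 g/ha) in acetone/water with surfactant, inoculated next day with Erysiphe graminis f. sp. tritici spores. After 7 days at 20 °C, disease rated 0–100 as % control relative to untreated plants.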

[2] = system: Septoria nodorum; assay: Test C: preventive spray on wheat seedlings, Septoria glume blotch, disease rating; settings: wheat seedlings sprayed to run-off, inoculated the following day with Septoria nodorum, 48 h saturated atmosphere then 9 days at 20° C.; test concentration not given
Outline: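 Wheat seedlings were sprayed to run-off with compound suspensions in acetone/water containing 250 ppm Trem 014 (200 ppm equals 500 g/ha), then inoculated with Septoria nodorum spores next day. Plants were held 48 h saturated at 20° C., then 9 days at 20° C. Disease control was rated 0–100 relative to controls.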

[3] = system: Puccinia recondita; assay: Test B: preventive spray on wheat seedlings, wheat leaf rust, disease rating; settings: wheat seedlings sprayed to run-off, inoculated the following day with Puccinia recondita, 24 h saturated atmosphere then 6 days at 20° C.; test concentration not given
Outline: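 Compound suspended in acetone/water (50/50) with 250 ppm Trem 014 surfactant, sprayed to run-off on wheat seedlings (200 ppm ≈ 500 g/ha); P. recondita spores inoculated next day. Plants held 24 h saturated at 20° C, then 6 days at 20° C; disease rated as % control relative to untreated (100 = full control).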

Row | SMILES | Test A disease control rating (100 = 100% disease control, 0 = no disease control relative to the controls) [1] [%] | Test C disease control rating (100 = 100% disease control, 0 = no disease control relative to the controls) [2] [%] | Test B disease control rating (100 = 100% disease control, 0 = no disease control relative to the controls) [3] [%]
1 | CCN(C)C(=S)Nc1cc(Cl)c(OCCC[Si](C)(C)C)cc1C [compound 169] | 99 | 100 | 100
2 | CCN(CC)C(=S)Nc1cc(Cl)c(OCCC[Si](C)(C)C)cc1C [compound 170] | 99 | 99 | 100
3 | Cc1cc(OCCC[Si](C)(C)C)c(Cl)cc1N=CN(C)C [compound 172] | 100 | 100 | 100
4 | CC(=Nc1cc(Cl)c(OCCC[Si](C)(C)C)cc1C)N(C)C [compound 173] | 32 | 99 | 90
5 | Cc1cc(OCCCC(C)(C)C)c(Cl)cc1N=CN(C)C [compound 175] | 97 | 100 | 100
6 | Cc1cc(OCCCC(C)(C)C)c(Cl)cc1N=CN(C)C [compound 176] | 43 | 100 | 99
7 | CCN(CC)C(=S)Nc1cc(Cl)c(OCCCC(C)(C)C)cc1C [compound 177] | 96 | 100 | 100
8 | CCN(C)C(=S)Nc1cc(Cl)c(OCCCC(C)(C)C)cc1C [compound 178] | 100 | 100 | 100
9 | CCN(CC)C(=S)Nc1cc(Cl)c(OCCC[Si](C)(C)C)c(Cl)c1C [compound 179] | 20 | 0 | 23
10 | Cc1c(NC(=S)N(C)C)cc(Cl)c(OCCC[Si](C)(C)C)c1Cl [compound 180] | 75 | 0 | 58
11 | CCN(C)C(=S)Nc1cc(Cl)c(OCCC[Si](C)(C)C)c(Cl)c1C [compound 181] | 100 | 67 | 100
12 | CCN(C)C=Nc1cc(Cl)c(OCCC[Si](C)(C)C)c(Cl)c1C [compound 182] | 98 | 67 | 79
13 | CN(C)C(=S)Nc1cc(Cl)c(OCCC[Si](C)(C)C)cc1Cl [compound 183] | 99 | 90 | 85
14 | CCN(C)C(=S)Nc1cc(Cl)c(OCCC[Si](C)(C)C)cc1Cl [compound 184] | 100 | 78 | 99
15 | CCN(CC)C(=S)Nc1cc(Cl)c(OCCC[Si](C)(C)C)cc1Cl [compound 185] | 99 | 63 | 98
16 | CN(C)C(=S)Nc1cc(Cl)c(OCCCC(C)(C)C)cc1Cl [compound 186] | 94 | 0 | 9
17 | CCN(C)C(=S)Nc1cc(Cl)c(OCCCC(C)(C)C)cc1Cl [compound 187] | 100 | 78 | 99
18 | CCN(CC)C(=S)Nc1cc(Cl)c(OCCCC(C)(C)C)cc1Cl [compound 188] | 100 | 90 | 79
19 | Cc1cc(NC(=O)NCC(C)C)c(C)cc1N=CN(C)C [compound 189] | 0 | 0 | 9
20 | Cc1cc(NC(=O)NCC(C)(C)C)c(C)cc1N=CN(C)C [compound 190] | 0 | 0 | 68
21 | CCN(CC)C(=S)Nc1cc(C)c(OCCCC(C)(C)C)cc1C [compound 191] | 63 | 91 | 99
22 | Cc1cc(OCCCC(C)(C)C)c(C)cc1NC(=S)N(C)C [compound 192] | 99 | 100 | 100
23 | Cc1cc(NC(=O)N(C)CC(C)(C)C)c(C)cc1N=CN(C)C [compound 193] | 0 | 0 | 23
24 | CCN(C)C(=S)Nc1cc(C)c(OCCCC(C)(C)C)cc1C [compound 194] | 99 | 100 | 100
25 | CCN(C)C=Nc1cc(C)c(OCCC[Si](C)(C)C)cc1C [compound 196] | 100 | 100 | 100
26 | CCN(C)C=Nc1cc(Cl)c(OC(C)CCC(C)C)cc1C (stereo not drawn) [compound 198] | 100 | 100 | 100
27 | CCN(C)C=Nc1cc(C)c(OCCCC(C)(C)C)cc1C [compound 199] | 100 | 100 | 100
28 | CCN(C)C=Nc1cc(C)c(OCCCC(C)C)c(Cl)c1C [compound 200] | 100 | 100 | 100
29 | CCN(C)C=Nc1cc(C)c(OCCCC(C)(C)C)c(Cl)c1C [compound 201] | 100 | 100 | 100

From patent US20050182025A1, “Amidinylphenyl compounds and their use as fungicides” (priority 2002, published 2005)
